The values below are quoted from earlier work in patent publication US20130053433A1, “FATTY ACID DERIVATIVES AND ANALOGS OF DRUGS” (The University of North Carolina at Chapel Hill, priority 2010, published 2013).

In the data set the target is albumin (Homo sapiens, UniProt P02768).
Sequence of albumin (P02768 25-609): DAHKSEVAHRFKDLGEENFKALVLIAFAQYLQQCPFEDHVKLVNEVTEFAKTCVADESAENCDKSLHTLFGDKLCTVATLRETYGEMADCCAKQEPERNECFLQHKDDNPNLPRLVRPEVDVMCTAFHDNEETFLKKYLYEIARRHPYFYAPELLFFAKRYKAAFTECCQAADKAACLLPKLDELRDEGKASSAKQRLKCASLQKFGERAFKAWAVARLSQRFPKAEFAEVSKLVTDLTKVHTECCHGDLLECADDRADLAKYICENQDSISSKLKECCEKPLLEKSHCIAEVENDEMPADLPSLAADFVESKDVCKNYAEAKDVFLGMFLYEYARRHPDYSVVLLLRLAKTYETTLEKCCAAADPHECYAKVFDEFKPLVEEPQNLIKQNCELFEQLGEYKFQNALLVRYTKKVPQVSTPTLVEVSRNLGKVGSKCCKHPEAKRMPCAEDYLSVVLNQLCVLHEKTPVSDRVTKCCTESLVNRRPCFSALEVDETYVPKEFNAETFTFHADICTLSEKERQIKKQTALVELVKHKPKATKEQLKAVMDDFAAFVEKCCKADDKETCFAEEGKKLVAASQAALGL

Regarding `CC(=O)O[C@H]1C(=O)[C@@]2(C)[C@H]([C@H](OC(=O)c3ccccc3)[C@]3(O)C[C@H](OC(=O)[C@H](O)[C@@H](NC(=O)c4ccccc4)c4ccccc4)C(C)=C1C3(C)C)[C@]1(OC(C)=O)CO[C@@H]1C[C@@H]2O` [PTX, paclitaxel], the Kd (read-out: dissociation constant Kd for albumin, Paal, Muller et al. 2001) was around 10 µM.

Take `CCCCCCCCCCCCCCCCCC(=O)O` [stearic acid]: for the setting “depending on total fatty acid concentration, Curry, Brick et al. 1999”, the Kd for albumin entry is “in the range of μM to nM”.
